According to patent US10669283B2, “Compound and pharmacologically acceptable salt thereof” (MEIJI SEIKA PHARMA CO., LTD., priority 2016, dated 2020):
pIC50: −log10 of the molar value.

Legend:
PDE4 = PDE4 inhibition, scintillation proximity assay (SPA); assay type: biochemical; details: scintillation proximity assay; class symbols; read-out: PDE4 Inhibitory Activity
Summary of the method: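 Scintillation proximity read-out: [2,8-3H]-cAMP hydrolysis by PDE4 ran 120 min at room temperature in Tris-HCl pH 7.4 buffer with 8.3 mM MgCl2, 1.7 mM EGTA and 3 mg/mL BSA. Bead-bound product (YSi-SPA with ZnSO4, 15 min) counted; blank lacks enzyme, control has DMSO only.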

[1] = Hepatic metabolic stability (rat liver microsome method); assay type: in vitro ADME; details: rat liver microsomes 0.5 mg/mL, test substance 1 μM, NADPH 1 mM, 37° C., 30 minutes
Summary of the method: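 Test compound (1 μM) preincubated with rat liver microsomes (0.5 mg/mL) in 100 mM potassium phosphate pH 7.4 at 37° C; NADPH (1 mM) started reaction, acetonitrile stopped it at 0 and 30 min. LC-MS quantitation; % remaining = 30-min/0-min ×100, graded A ≥75%, B 60–<75%, C 45–<60%, D <45%.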

SMILES	pIC50 (PDE4)	Residual ratio (% remaining for 30-minute reaction) [1]
OCC(F)(F)Oc1ccc(-c2nccs2)c2oc(N3CC4CC(C3)N4O)nc12 [Example 374, 3-(4-(1,1-difluoro-2-hydroxyethoxy)-7-(thiazol-2-yl)benzo [d]oxazol-2-yl)-3,6-diazabicyclo[3.1.1] heptan-6-ol]	> 7.00	B (60% or more and less than 75%)
OCc1cccnc1Oc1ccc(-c2nccs2)c2oc(N3CC4CC(C3)N4)nc12 [Example 376, (2-((2-(3,6-diazabicyclo[3.1.1]heptan-3-yl)-7-(thiazol-2-yl)benzo[d]oxazol-4-yl)oxy)pyridin-3-yl)methanol]	> 7.00	A (a % remaining rate of 75% or more)
c1cc(-c2nccs2)c2oc(N3CC4CC(C3)N4)nc2c1 [Example 382, 2-(3,6-diaza-bicyclo[3.1.1]heptan-3-yl)-7-(thiazol-2-yl) benzo[d]oxazole]	> 7.00	B (60% or more and less than 75%)
O=S(=O)(NCCO)c1ccc(-c2nccs2)c2oc(N3CC4CC(C3)N4)nc12 [Example 385, 2-(3,6-diazabicyclo[3.1.1]heptan-3-yl)-N-(2-hydroxyethyl)-7-(thiazol-2-yl) benzo[d]oxazole-4-sulfonamide]	> 7.00	A (a % remaining rate of 75% or more)
COCCNS(=O)(=O)c1ccc(-c2nccs2)c2oc(N3CC4CC(C3)N4)nc12 [Example 387, 2-(3,6-diazabicyclo[3.1.1]heptan-3-yl)-N-(2-methoxyethyl)-7-(thiazol-2-yl)benzo [d]oxazole-4-sulfonamide]	> 7.00	A (a % remaining rate of 75% or more)
O=S(=O)(c1ccc(-c2nccs2)c2oc(N3CC4CC(C3)N4)nc12)N1CCOCC1 [Example 391, 2-(3,6-diazabicyclo [3.1.1]heptan-3-yl)-4-(morpholino-sulfonyl)-7-(thiazol-2-yl)benzo [d]oxazole]	> 7.00	B (60% or more and less than 75%)
COCC(F)(F)Oc1ccc(-c2nccs2)c2oc(N3CC4CC(C3)N4)nc12 [Example 392, 2-(3,6-diazabicyclo[3.1.1]heptan-3-yl)-4-(1,1-difluoro-2-methoxyethoxy)-7-(thiazol-2-yl) benzo[d]oxazole]	> 7.00	B (60% or more and less than 75%)
Cn1ccc(-c2ccc(OC(F)(F)C(C)(C)O)c3nc(N4CC5CC(C4)N5)oc23)n1 [Example 394, 1-((2-(3,6-diazabicyclo[3.1.1]heptan-3-yl)-7-(1-methyl-1H-pyrazol-3-yl)benzo[d]oxazol-4-yl)oxy)-1,1-difluoro-2-methylpropan-2-ol]	6.00 to 7.00	A (a % remaining rate of 75% or more)
CCC(O)C(F)(F)Oc1ccc(-c2nccs2)c2oc(N3CC4CC(C3)N4)nc12 (stereo not shown) [Example 395, 1-((2-(3,6-diazabicyclo[3.1.1]heptan-3-yl)-7-(thiazol-2-yl)benzo[d]oxazol-4-yl)oxy)-1,1-difluorobutan-2-ol]	> 7.00	B (60% or more and less than 75%)
OC1CCN(c2ccc(-c3nccs3)c3oc(N4CC5CC(C4)N5)nc23)CC1 [Example 397, 1-(2-(3,6-diazabicyclo[3.1.1]heptan-3-yl)-7-(thiazol-2-yl)benzo [d]oxazol-4-yl) piperidin-4-ol]	> 7.00	A (a % remaining rate of 75% or more)
CC(C)(O)C(F)(F)Oc1c(Br)cc(-c2nccs2)c2oc(N3CC4CC(C3)N4)nc12 [Example 399, 1-((2-(3,6-diazabicyclo [3.1.1]heptan-3-yl)-5-bromo-7-(thiazol-2-yl)benzo[d]oxazol-4-yl)oxy)-1,1-difluoro-2-methylpropan-2-ol]	> 7.00	B (60% or more and less than 75%)
CC(C)(O)C(F)(F)Oc1c(Cl)cc(-c2nccs2)c2oc(N3CC4CC(C3)N4)nc12 [Example 400, 1-((2-(3,6-diazabicyclo [3.1.1]heptan-3-yl)-5-chloro-7-(thiazol-2-yl)benzo[d]oxazol-4-yl)oxy)-1,1-difluoro-2-methylpropan-2-ol]	> 7.00	B (60% or more and less than 75%)
OCC(F)(F)Oc1c(Cl)cc(-c2nccs2)c2oc(N3CC4CC(C3)N4)nc12 [Example 401, 2-((2-(3,6-diazabicyclo [3.1.1]heptan-3-yl)-5-chloro-7-(thiazol-2-yl)benzo[d]oxazol-4-yl)oxy)-2,2-difluoroethan-1-ol]	> 7.00	A (a % remaining rate of 75% or more)
OCC(F)(F)Oc1ccc(-c2nccs2)c2oc(N3CC4CCC(C3)N4)nc12 [Example 404, 2-((2-(3,8-diazabicyclo [3.2.1]octan-3-yl) 7-(thiazol-2-yl)benzo[d]oxazol-4-yl)oxy)-2,2-difluoroethan-1-ol]	> 7.00	B (60% or more and less than 75%)
CC(C)(O)C(F)(F)Oc1ccc(-c2nccs2)c2oc(N3CC4CCC(C3)N4)nc12 [Example 405, 1-((2-(3,8-diazabicyclo [3.2.1]octan-3-yl)-7-(thiazol-2-yl)benzo[d]oxazol-4-yl)oxy)-1,1-difluoro-2-methylpropan-2-ol]	> 7.00	B (60% or more and less than 75%)
O=C(N1CCOCC1)C(F)(F)Oc1ccc(-c2nccs2)c2oc(N3CC4CC(C3)N4)nc12 [Example 409, 2-((2-(3,6-diazabicyclo [3.1.1]heptan-3-yl)-7-(thiazol-2-yl)benzo[d]oxazol-4-yl)oxy)-2,2-difluoro-1-morpholino-ethan-1-one]	> 7.00	B (60% or more and less than 75%)
NC(=O)C(F)(F)Oc1ccc(-c2nccs2)c2oc(N3CC4CC(C3)N4)nc12 [Example 410, 2-((2-(3,6-diazabicyclo [3.1.1]heptan-3-yl)-7-(thiazol-2-yl)benzo[d]oxazol-4-yl)oxy)-2,2-difluoro-acetamide]	> 7.00	A (a % remaining rate of 75% or more)
O=C(NCCO)C(F)(F)Oc1ccc(-c2nccs2)c2oc(N3CC4CC(C3)N4)nc12 [Example 411, 2-((2-(3,6-diazabicyclo [3.1.1]heptan-3-yl)-7-(thiazol-2-yl)benzo[d]oxazol-4-yl)oxy)-2,2-difluoro-N-(2-hydroxy-ethyl) acetamide]	> 7.00	A (a % remaining rate of 75% or more)
O=C(N1CC(O)C1)C(F)(F)Oc1ccc(-c2nccs2)c2oc(N3CC4CC(C3)N4)nc12 [Example 412, 2-((2-(3,6-diazabicyclo [3.1.1]heptan-3-yl)-7-(thiazol-2-yl)benzo[d]oxazol-4-yl)oxy)-2,2-difluoro-1-(3-hydroxy-azetidin-1-yl)ethan-1-one]	> 7.00	A (a % remaining rate of 75% or more)
FC(F)(F)c1ccc(Oc2cc(-c3nccs3)c3oc(N4CC5CC(C4)N5)nc3c2)nc1 [Example 413, 2-(3,6-diazabicyclo [3.1.1]heptan-3-yl)-7-(thiazol-2-yl)-5-((5-(trifluoro-methyl)pyridin-2-yl)oxy) benzo[d] oxazole]	> 7.00	A (a % remaining rate of 75% or more)
